# Measurements as given in patent US20240368209A1, “GEMCITABINE ANTICANCER DERIVATIVE AND ANTICANCER PHARMACEUTICAL USE” (ASCENTAWITS PHARMACEUTICALS, LTD., priority 2021, published 2024).
# Where “and” joins values, the source holds several entries; their conditions need not be identical. Equal values may be shown once. Read-outs that look alike come from different tables or passages of the source.
# Assays:
# [1] = Maximal tolerance dose (MTD) test; format: in vivo; details: mice
# Procedure: According to the research scheme in Table 14, mice were grouped and administered at the concentrations and dosage levels shown in Table 14. On the 1st to 5th day and the 14th to 19th day, intraperitoneal injection of a solvent control or compound H11 at different dosage levels was performed, with a dose volume of 10 mL/kg. Animals in Groups 1, 3, and 4 were put to death and autopsied on the 22nd day, and animals in Group 2 were put to death and autopsied on the 16th day.
# The evaluated parameters included cage-side observation, detailed clinical observation, and post-administration observation (approximately 1-2 hours after dosing), body weight and weight change, food intake, and gross pathology.
# [2] = Plasma stability in mouse plasma; format: in vitro ADME
# Procedure: (§1) The final concentration of organic solvents was 0.5%. The test was conducted in duplicate. • C.
# (§2) Samples were analyzed with LC-MS/MS. All calculations were conducted using Microsoft Excel.
# [3] = tested on: H460 non-small cell lung cancer human tumor cell line; experiment: In vitro human tumor cell line cytotoxicity (proliferation) assay on H460, CTG, with or without AST-3021; format: cell-based; details: for IC50: Homo sapiens
# Procedure: In vitro human tumor cell line cytotoxicity assay was used.
# In vitro proliferation data on the H460 non-small cell lung cancer human tumor cell line (cell line which highly expresses AKR1C3) is reported below in the compound table.
# IC50 values were obtained with the following steps:
# Specifically, exponentially growing cells were seeded at a density of 2×10^3 cells/100 μL/well in a 96-well plate and incubated at 37° C. in 5% CO2, 95% air and 100% relative humidity for 24 hours. The test compound was administered alone: 24 hours after cell plating, the compound acted alone, 99 μL of growth medium per well was added, and 1 μL of the compound prepared at 200× was added, and the plate was shaken gently to ensure even mixing, then placed into an incubator of 37° C., 5% CO2. After further cultivation for 72 hours, the number of live cells was detected using CTG. The CTG detection method was as follows: the cell plate to be tested was placed at room temperature to equilibrate for 30 minutes, and 100 μL of medium per well was discarded. 25 μL of CTG reagent (CellTiter-Glo® kit) per well was added, and the plate was placed in a high-speed shaker to oscillate for 2 minutes, and placed at room temperature in the dark for 30 minutes. The chemiluminescence signal value was read using a multimode microplate reader, with a read time of 1000 ms.
# Similarly, in order to further verify that the compounds were activated by human AKR1C3 (aldosterone reductase family 1 member C3), the effect of some of the compounds on the proliferation of H460 cancer cells was tested with pretreatment with a specific AKR1C3 enzyme inhibitor AST-3021 (3 μM). The detailed experimental procedure was as follows: 24 hours after cell plating, 98 μL of growth medium per well was added, and 1 μL of 200×compound AST-3021 was added to each well, and the plate was shaken gently to ensure even mixing, and then placed into an incubator; after 2 hours, 1 μL of the test compound prepared at 200× was added, and the plate was shaken gently to ensure even mixing and then laced into an incubator of 37° C., 5% CO2. The inhibitor used was compound 36, i.e.
# in Flanagan et al., Bioorganic and Medicinal Chemistry (2014), page 962-977, and is referred to as AST-3021 in this invention. The values measured in this case are values corresponding to +AST-3021 IC50 (nM) in Table 1.
# The value corresponding to +AST-3021 IC50 (nM) divided by the value corresponding to IC50 (nM) is the specific activation ratio. The relative magnitude of the specific activation ratio can be used to evaluate whether this compound is a cytotoxic compound activated by human AKR1C3 (aldosterone reductase family 1 member C3): when the specific activation ratio is less than 1, it is considered that the compound is not activated by human AKR1C3 (aldosterone reductase family 1 member C3); when the specific activation ratio is greater than 1, it is considered that the compound is activated by human AKR1C3 (aldosterone reductase family 1 member C3), and the higher the value, the higher the activation degree and the selectivity of AKR1C3.
# H460 cancer cells = experiment: Inhibition of H460 cancer cells in the presence or absence of AKR1C3 inhibitor AST-3021 (section 2.1); format: cell-based, human; details: AST-3021 3 μM, read-out: IC50 (nmol/L) AST-3021 added
# Procedure: The experimental scheme was as follows: • 1) H460 cell suspension was added to a 96-well plate with 100 μL per well at a cell density of 2000/well. • 2) Cells were incubated in an incubator of 37° C., 5% CO2 overnight. • 3) Compound treatment
# Combined administration: 24 hours after cell plating, 98 μL of growth medium per well was added. 1 μL of AST-3021 was added to each well (final concentration 3 μM), and the plate was shaken gently to ensure even mixing, and then placed into an incubator; after 2 hours, 1 μL of the test compound at different concentrations was added, and the plate was shaken gently to ensure even mixing, and then placed into an incubator of 37° C., 5% CO2.
# Administration of the drug alone: 24 hours after cell plating, 99 μL of growth medium per well was added.
# In order to further verify that the compound was activated specifically by human AKR1C3 (aldosterone reductase family 1 member C3), the compound was added following the pretreatment of cells with the specific AKR1C3 enzyme inhibitor AST-3021 (3 μM), and the effect of the presence of AST-3021 on the proliferation of H460 cancer cells was tested
# IC50 data of inhibitory effect of the compounds gemcitabine and H11 on H460 cancer cells in the presence or absence of the AKR1C3 inhibitor AST-3021 is shown in Table 2 and Table 3.
# [4] = Plasma stability in monkey plasma; format: in vitro ADME
# Procedure: as §1, §2
# [5] = Plasma stability in dog plasma; format: in vitro ADME
# Procedure: as §1, §2
smiles,measurement,setting,value
CC(C)NP(=O)(OCc1ccc([N+](=O)[O-])c(Oc2ccc(-c3ccc(F)cc3)c(F)c2)c1)OCC1OC(C2N=CC(N)=NC2=O)C(F)(F)C1O (centres unmarked) [Compound H11],Clinical symptoms,"[1]; 80, 160, 320 mg/kg/day i.p.",No abnormal compound-related clinical manifestation was observed
same,Impact on animal weight and food intake,"[1]; 80, 160, 320 mg/kg/day i.p.",No abnormal compound-related change in body weight or food intake was observed
same,Mortality of animals,"[1]; 80, 160, 320 mg/kg/day i.p., two rounds of 5 days",all experimental animals survived until the planned autopsy
same,dose at which enlargement of the spleen was visible (pathological examination),[1]; i.p.,≥ 160 mg/kg
same,dose group with change to white in the renal capsule (pathological examination),[1]; i.p.,320 mg/kg
same,maximal tolerance dose,[1]; intraperitoneal injection once a day for 5 consecutive days,320 mg/kg
same,t1/2 (min),[2],∞
same,Remaining percentage (%),"[2]; 0 min, 5 μM, 37° C.",100.00%
same,plasma stability (in words),"[2]; 37° C., at least 2 hours",stable and has no significant metabolism
same,Remaining percentage (%),[2]; 15 min,102.19%
same,Remaining percentage (%),[2]; 30 min,96.83%
same,Remaining percentage (%),[2]; 60 min,104.70%
same,Remaining percentage (%),[2]; 120 min,97.53%
same,specific activation ratio (+AST-3021 IC50/IC50),[3],92.8
same,IC50,"[3]; NCI-H460, compound alone, 72 hours, read-out: IC50",15.9 nM
same,IC50,"[3]; NCI-H460, pretreatment with AKR1C3 inhibitor AST-3021 (3 μM), read-out: +AST-3021 IC50",1480 nM
same,IC50,H460 cancer cells; H460,1470 nmol/L and 2350 nmol/L
same,IC50,"H460 cancer cells; Homo sapiens, NCI-H460, H460",2940 nmol/L
same,t1/2 (min),[4],∞
same,Remaining percentage (%),"[4]; 0 min, 5 μM, 37° C.",100.00%
same,plasma stability (in words),"[4]; 37° C., at least 2 hours",stable and has no significant metabolism
same,Remaining percentage (%),[4]; 15 min,100.61%
same,Remaining percentage (%),[4]; 30 min,92.99%
same,Remaining percentage (%),[4]; 60 min,103.66%
same,Remaining percentage (%),[4]; 120 min,98.48%
same,t1/2 (min),[5],∞
same,Remaining percentage (%),"[5]; 0 min, 5 μM, 37° C.",100.00%
same,plasma stability (in words),"[5]; 37° C., at least 2 hours",stable and has no significant metabolism
same,Remaining percentage (%),[5]; 15 min,104.14%
same,Remaining percentage (%),[5]; 30 min,103.37%
same,Remaining percentage (%),[5]; 60 min,102.42%
same,Remaining percentage (%),[5]; 120 min,103.04%
